The numbers were not newly measured in patent publication US10898463B2, “High-strength oral cannabinoid dosage forms” (ICDPHARMA LTD, priority 2016, dated 2021), which cites them from elsewhere.

The conditions of this data set: octanol/water.

As a reminder, the LogP is a log measure of how a compound divides between an organic and an aqueous phase. For `CC1=CCC2CC1C2(C)C` (stereo not shown) [Alfa-pinene], the LogP was 4.37.
As to `C=C1CC/C=C(\C)CC[C@@H]2[C@@H]1CC2(C)C` [Beta-caryophyllene], the LogP is reported as 4.72.
As for `CC(C)=CCC[C@](C)(O)C1CC=C(C)CC1` (stereo partly shown) [Bisabolol], the LogP is 5.07.
With `C=C1C2CCC(C2)C1(C)C` (stereo not shown) [Camphene], the LogP is 4.24.
For the molecule `CC12CCC(CC1=O)C2(C)C` (stereo not shown) [Camphor], the LogP is given as 2.55.
With `CC1=CCC2C(C1)C2(C)C` (stereo not shown) [Carene], the LogP was 4.32.
Regarding `CC12CCC(CC1)C(C)(C)O2` [Cineol], the LogP is reported as 2.7.
On to `C=CCc1ccc(O)c(OC)c1` [Eugenol], for which the LogP is recorded as 2.66.
With `C=C(C)[C@H]1CC=C(C)CC1` [Limonene], the LogP is reported as 2.38.
As to `C=CC(C)(O)CCC=C(C)C` (stereo not shown) [Linalool], the LogP was 2.65.
With `COC(=O)c1ccccc1O` [Methyl salicylate], the lipophilicity (LogP) is reported as 2.3.
As to `C=CC(=C)CCC=C(C)C` [Myrcene], the lipophilicity (LogP) was 4.17.
For `C=CC(C)(O)CCC=C(C)CCC=C(C)C` (stereo not shown) [Nerolidol], the LogP was 4.68.
With `C/C(=C\CO)CCC[C@H](C)CCC[C@H](C)CCCC(C)C` [Phytol], the LogP is listed as 7.04.
Consider `CC(C)=C1CC[C@@H](C)CC1=O` [Pulegone], for which the LogP is on record as 3.08.
For `CC1=CCC(O)(C(C)C)CC1` (stereo not shown) [Terpinen-4-ol], the LogP is 3.26.
Regarding `Cc1ccc(C(C)C)c(O)c1` [Thymol], the LogP is reported as 3.28.
For Citronella, the LogP is given as 3.53.
For the molecule Terpinene, the LogP was 4.5.
